These results are taken from patent publication US20070275967A1, “Pyrazolinols” (BAYER CROPSCIENCE AKTIENGESELLSCHAFT, priority 2003, published 2007).

The test system of data set [1] is Meloidogyne incognita. Kind of data set: Meloidogyne test (nematicidal action by gall formation on lettuce roots). Format: in vivo. To be noted: for nematicidal action (formation of galls): Meloidogyne incognita egg/larvae suspension, lettuce, sand, result in words; for pest or weed control at 20 ppm: Meloidogyne incognita, 336 h, active compound concentration 20 ppm, after 14 d, nematicidal action by gall formation, read-out: Effect in % after 14 d. As to the method:
Meloidogyne Test [table] To produce a suitable preparation of active compound, 1 part by weight of active compound is mixed with the stated amounts of solvent and emulsifier, and the concentrate is diluted with water to the desired concentration. Containers are filled with sand, solution of active compound, Meloidogyne incognita egg/larvae suspension and lettuce seeds. The lettuce seeds germinate and the plants develop. On the roots, galls are formed. After the desired period of time, the nematicidal action is determined in % by the formation of galls. 100% means that no galls were found; 0% means that the number of galls on the treated plants corresponds to that of the untreated control.

Data set [2] in a line: logP determination by HPLC on reversed-phase column (EEC Directive 79/831 Annex V.A8). The format is physicochemical. To be noted: reversed-phase C18 HPLC column; acidic range (pH 2.3), marked a); 0.1% aqueous phosphoric acid/acetonitrile gradient; reversed-phase C 18; 43° C. An outline of the steps: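 Reversed-phase C18 HPLC at 43° C with 10–90% acetonitrile linear gradient, run at pH 2.3 (0.1% phosphoric acid) or pH 7.5 (0.01-molar phosphate buffer). logP derived from retention times by linear interpolation against unbranched alkan-2-ones (C3–C16) of known logP.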

Data set [3] has as its system caterpillars of the armyworm (Spodoptera frugiperda). Kind of data set: Spodoptera frugiperda test (spray treatment). Format: in vivo. Here is the method:
Spodoptera Frugiperda Test (Spray Treatment) [table] To produce a suitable preparation of active compound, 1 part by weight of active compound is mixed with, the stated amounts of solvents and emulsifier, and the concentrate is diluted with emulsifier-containing water to the desired concentration. Disks of corn leaves (Zea mays) are sprayed with a preparation of active compound of the desired concentration and, after they have dried, populated with caterpillars of the armyworm (Spodoptera frugiperda). After the desired period of time, the activity in % is determined. 100% means that all caterpillars have been killed; 0% means that none of the caterpillars have been killed.

The test system of data set [4] is larvae of the mustard beetle (Phaedon cochleariae). Kind of data set: Phaedon test (spray treatment). The format is in vivo. To be noted: for activity (kill of beetle larvae): Chinese cabbage disks sprayed, populated with Phaedon cochleariae larvae, result in words; for pest or weed control at 500 g/ha: Phaedon cochleariae, 168 h, active compound concentration 500 g/ha, after 7 d, spray treatment, read-out: Kill rate in % after 7 d. Here is the method: Phaedon Test (Spray Treatment) [table] To produce a suitable preparation of active compound, 1 part by weight of active compound is mixed with the stated amounts of solvents and emulsifier, and the concentrate is diluted with emulsifier-containing water to the desired concentration. Disks of Chinese cabbage (Brassica pekinensis) are sprayed with a preparation of active compound of the desired concentration and, once they have dried, populated with larvae of the mustard beetle (Phaedon cochleariae). After the desired period of time, the activity in % is determined. 100% means that all beetle larvae have been killed; 0% means that none of the beetle larvae have been killed.

Data set [5] has as its system Adults of Ctenocephalides felis. Kind of data set: Test with cat fleas/oral uptake. Format: in vivo. To be noted: for Kill rate in % after 2 d: active compound concentration 100 ppm, oral uptake; for mortality of fleas: oral uptake from citrated cattle blood, at least 75% kill within 48 h judged effective, result in words. As to the method: Test with Cat Fleas/Oral Uptake
Ctenocephalides Felis (Oral)
To produce a suitable formulation, a suitable solution of active compound is prepared from 10 mg of active compound and 0.5 ml of DMSO. 10 μl of this formulation are added to 2 ml of citrated cattle blood and stirred.
20 unfed adult fleas (Ctenocephalides felis, strain “Georgi”) are placed into a chamber (Ø 5 cm) whose top and bottom are closed with gauze. A metal cylinder whose underside is covered with parafilm is placed onto the chamber. The cylinder contains the 2 ml of blood/active compound formulation which can be taken up by the fleas through the parafilm membrane. Whereas the blood is warmed to 37° C., the temperature in the area of the flea chambers is adjusted to room temperature. Controls are mixed with the same volume of DMSO, without addition of a compound.
After 24 h and 48 h, the mortality in % is determined.
Compounds which effect an at least 75% kill of the fleas within 48 h are judged to be effective.

Data set [6] deals with greenhouse red spidermite (Tetranychus urticae). Nature of the data set: Tetranychus test (OP-resistant/spray treatment). Format: in vivo. Here is the method: Tetranychus Test (OP-Resistant/Spray Treatment)
To produce a suitable preparation of active compound, 1 part by weight of active compound is mixed with the stated amounts of solvents and emulsifier, and the concentrate is diluted with emulsifier-containing water to the desired concentration.
Disks of bean leaves (Phaseolus vulgaris) which are infested by all stages of the greenhouse red spidermite (Tetranychus urticae) are sprayed with a preparation of active compound of the desired concentration.
After the desired period of time, the activity in % is determined. 100% means that all spidermites have been killed; 0% means that none of the spidermites have been killed.

Usually chromatographic logP stands for a lipophilicity value derived from retention on a column. On to `CC(C)C1=NN(C(=S)NCCN2CCOCC2)C(O)(C(F)(F)F)C1` (stereo not shown) [Example 43], for which, in data set [1], the “nematicidal action (formation of galls)” value is listed as “good activity” and the pest or weed control at 20 ppm was 100%. The compound also registered a chromatographic logP in data set [2] of 1.45.
For the compound `CC1=NN(C(=O)Nc2ccc(Cl)cc2)C(O)(C(F)(F)F)C1` (stereo not shown) [Example 114], in data set [1], the “nematicidal action (formation of galls)” value is “good activity” and the pest or weed control at 20 ppm was found to be 90%. The compound also showed a chromatographic logP in data set [2] of 3.
As to `CC1=NN(C(=S)Nc2c(F)cccc2F)C(O)(C(F)(F)F)C1` (stereo not shown) [Example 100], in data set [1], the “nematicidal action (formation of galls)” value was “good activity” and the pest or weed control at 20 ppm amounted to 90%. For the same compound, the chromatographic logP in data set [2] worked out at 2.91.
`CCC1=NN(C(=S)Nc2ccc(OC)cc2)C(O)(C(F)(F)F)C1` (stereo not shown) [Example 14]: in data set [1], the “nematicidal action (formation of galls)” value is “good activity” and the pest or weed control at 20 ppm stood at 100%. In data set [2], this compound came in with a chromatographic logP of 3.47.
Regarding `CC(C)C1=NN(C(=S)Nc2c(Cl)cccc2Cl)C(O)(C(F)(F)F)C1` (stereo not shown) [Example 29], the pest or weed control at 500 g/ha in data set [3] (Spodoptera frugiperda, 168 h, active compound concentration 500 g/ha, after 7 d, spray treatment, read-out: Kill rate in % after 7 d) amounted to 100%. Also, the “activity (kill of caterpillars)” value in data set [3] (corn leaf disks sprayed, populated with Spodoptera frugiperda caterpillars, result in words) is “good activity”. Besides, in data set [4], the “activity (kill of beetle larvae)” value is listed as “good activity” and the pest or weed control at 500 g/ha was 100%. Moreover, in data set [5], the “Kill rate in % after 2 d” value stood at 100% and the mortality of fleas result is given as “good activity”. This compound came in with a chromatographic logP in data set [2] of 4.
For the compound `COc1ccc(NC(=S)N2N=C(C(C)C)CC2(O)C(F)(F)F)cc1` (stereo not shown) [Example 19], in data set [1], the “nematicidal action (formation of galls)” value is recorded as “good activity” and the pest or weed control at 20 ppm came to 100%. This compound also displayed a chromatographic logP in data set [2] of 3.83.
As to `CC1=NN(C(=S)Nc2ccc(Cl)cc2)C(O)(C(F)(F)F)C1` (stereo not shown) [Example 122], in data set [1], the “nematicidal action (formation of galls)” value is recorded as “good activity” and the pest or weed control at 20 ppm amounted to 90%.
In the case of `CC(C)C1=NN(C(=S)Nc2ccc(Cl)cc2Cl)C(O)(C(F)(F)F)C1` (stereo not shown) [Example 34], in data set [4], the “activity (kill of beetle larvae)” value is “good activity” and the pest or weed control at 500 g/ha turned out to be 100%. In data set [5], the “Kill rate in % after 2 d” value is given as 100% and the mortality of fleas entry is “good activity”. In data set [2], this compound registered a chromatographic logP of 4.91. Further, the pest or weed control at 500 g/ha in data set [6] (Tetranychus urticae, 120 h, active compound concentration 500 g/ha, after 5 d, OP-resistant, spray treatment, read-out: Kill rate in % after 5 d) amounted to 100%. In addition, the “activity (kill of spidermites)” value in data set [6] (bean leaf disks infested by all stages of Tetranychus urticae (OP-resistant), sprayed, result in words) was “good activity”.
As for `CC1=NN(C(=O)Nc2ccc(C(F)(F)F)cc2)C(O)(C(F)(F)F)C1` (stereo not shown) [Example 115], in data set [1], the “nematicidal action (formation of galls)” value is given as “good activity” and the pest or weed control at 20 ppm came out at 100%. In data set [2], this compound yielded a chromatographic logP of 3.26.
